According to publication PMC6274122, “Antibacterial Activity and Cytotoxicity of Silver(I) Complexes of Pyridine and (Benz)Imidazole Derivatives. X-ray Crystal Structure of [Ag(2,6-di(CH2OH)py)2]NO3” (Molecules, 2016):
Read-outs that look alike come from different tables or passages of the source.

How the values were obtained:
[1] = Broth microdilution MIC of free ligands, strain not specified; format: cell-based; conditions: Proteus hauseri, ATCC 13315 / ATCC 15442 / ATCC 25922; free ligands tested up to 500 mg/L
Experimental: (§1) The antimicrobial susceptibility testing of synthesized complexes, free ligands, and references compounds (AgNO3 and AgSD) was performed against three Gram-negative strains: Eschericha coli ATCC 25922, Proteus hauseri ATCC 13315, and Pseudomanos aeruginosa ATCC 15442. The minimum inhibitory concentration (MIC) and minimum bactericidal concentration (MBC) were determined by a modified broth microdilution method according to the recommendation of Clinical and Laboratory Standards Institute (CLSI M07-A8). In the experiments the Mueller-Hinton broth was used, the final organism density was about 5 × 10^5 CFU/mL and the tests were performed 20 h at 37 °C. The studied compounds were dissolved in water (1, 3, 4, 6, and the ligands [except 2-CH2OHbim]) or in DMSO (2, 5, and 2-CH2OHbim), and the appropriate amounts were added to samples (to biotic controls was added pure solvent). The compounds were tested in concentration ranging from 0 mg/L to 100 mg/L, except free ligands which were tested up to 500 mg/L.

[2] = system: Escherichia coli ATCC 25922; experiment: Broth microdilution MIC/MBC (CLSI M07-A8), E. coli; format: cell-based; conditions: for MBC (minimum bactericidal concentration): E. coli ATCC 25992; for MIC (minimum inhibitory concentration): Mueller-Hinton broth, 20 h at 37 °C, triplicate (SD = 0)
Experimental: as §1

[3] = system: Pseudomonas aeruginosa ATCC 15442; experiment: Broth microdilution MIC/MBC (CLSI M07-A8), P. aeruginosa; format: cell-based; conditions: for MBC (minimum bactericidal concentration): P. aeruginosa ATCC 15442; for MIC (minimum inhibitory concentration): Mueller-Hinton broth, 20 h at 37 °C, triplicate (SD = 0)
Experimental: as §1

[4] = system: Proteus hauseri ATCC 13315; experiment: Broth microdilution MIC/MBC (CLSI M07-A8), P. hauseri; format: cell-based; conditions: for MBC (minimum bactericidal concentration): P. hauseri ATCC 13315; for MIC (minimum inhibitory concentration): P. hauseri, Mueller-Hinton broth, 20 h at 37 °C, triplicate (SD = 0)
Experimental: as §1

[5] = system: B16 (murine melanoma) cells; experiment: MTT cytotoxicity assay, B16 cells; format: cell-based; conditions: 72 h incubation, three independent experiments, read-out: IC50 (concentration causing 50% reduction of cellular viability)
Experimental: The B16 (murine melanoma) cells and C3H10T1/2 (mouse fibroblast) cells were seeded 7 × 10^3 (B16) and 3 × 10^4 (10T1/2) per well/24 well plate into a medium containing DMEM GlutaMAX (Thermo Fisher Scientific, Waltham, MA USA), 10% bovine serum (Lonza, San Diego, CA, USA) added, and Antibiotic Antimicotic Solution 1:100 (Sigma-Aldrich). The plates were stored in a humidified incubator at 37 °C, 5% CO2. After 24 h, the cells were treated with the following compounds: compounds 1–6, free ligands, AgNO3, and AgSD (except control cells—wells without tested compound). Silver complexes 1, 3, 4, 6, and AgNO3 were dissolved in water. Complexes 2, 5, and AgSD are DMSO-soluble. Next, all chemicals were diluted into water to make a concentration 1, 0.1, 0.01 mg/mL and as a working solution were added to the medium. After 72 h of incubation, the cells were washed and incubated with 0.25 mg/mL MTT (Sigma-Aldrich) solution and were incubated for another 3 h. Isopropanol was added to dissolve the formazan crystals. Absorbance at 540 and 690 nm was read using Epoch Software version 2.01.14 (Bio-Tek, Winooski, VT, USA).

[6] = system: E. coli ATCC 8739; parameters: method as in PMID 24218046; conditions: cited from earlier work
[7] = system: P. aeruginosa ATCC 27853; parameters: method as in PMID 24218046; conditions: cited from earlier work
[8] = system: three Gram-negative strains: Eschericha coli ATCC 25922, Proteus hauseri ATCC 13315, and Pseudomanos aeruginosa ATCC 15442; experiment: Broth microdilution MIC of free ligands, strain not specified; format: cell-based; conditions: free ligands tested up to 500 mg/L
Experimental: as §1

[9] = system: Escherichia coli ATCC 25922; parameters: method as in PMID 25846722; conditions: cited from earlier work
[10] = system: Pseudomonas aeruginosa ATCC 15442; parameters: method as in PMID 25846722; conditions: cited from earlier work
[11] = system: Proteus hauseri ATCC 13315; parameters: method as in PMID 25846722; conditions: cited from earlier work
[12] = system: B16 cells; parameters: method as in doi:10.1039/a702757e; conditions: cited from earlier work

Row | Compound | MBC (minimum bactericidal concentration) [2] [µM] | MIC (minimum inhibitory concentration) ([2]; E. coli) [µM] | MBC (minimum bactericidal concentration) [3] [µM] | MIC (minimum inhibitory concentration) ([3]; P. aeruginosa) [µM] | MBC (minimum bactericidal concentration) [4] [µM] | MIC (minimum inhibitory concentration) [4] [µM] | further results
1 | OCc1cccc(CO)n1 [2,6-di(CH2OH)py, 2,6-di(hydroxymethyl)-pyridine] |  |  |  |  |  |  | MIC [1]: > 500 µg/mL
2 | O=[N+]([O-])[O-].[Ag+] [AgNO3, silver nitrate, reference compound] | 177 | 118 | 59 | 59 | 177 | 118 | IC50 [5]: 9.74 µM
3 | CCOP(=O)(OCC)OCc1nc2ccccc2[nH]1.CCOP(=O)(OCC)OCc1nc2ccccc2[nH]1.O=[N+]([O-])O.[Ag] [Complex 2, [Ag(2-bimOpe)2]NO3] | 54 | 27 | 27 | 14 | 41 | 27 | MIC [6]: 21.2 µM; MIC [7]: 5.3 µM
4 | CCOP(=O)(OCC)OCc1nc2ccccc2[nH]1 [Complex 2-bimOpe] |  |  |  |  |  |  | MIC values of the free ligands [8]: > 500 mg/L^−1
5 | O=[N+]([O-])[O-].OCc1cccc(CO)n1.OCc1cccc(CO)n1.[Ag+] [Complex 3, [Ag(2,6-di(CH2OH)py)2]NO3] | 67 | 67 | 67 | 45 | 112 | 67 | 
6 | O=[N+]([O-])[O-].OCc1ccncc1.OCc1ccncc1.[Ag+] [Complex 4, [Ag(4-CH2OHpy)2]NO3] | 77 | 52 | 52 | 26 | 77 | 52 | 
7 | OCc1ccncc1 [Complex 4-CH2OHpy] |  |  |  |  |  |  | MIC [1]: > 500 µg/mL
8 | CCOP(=O)(OCC)OCc1ccncc1 [Complex 4-pmOpe] |  |  |  |  |  |  | MIC values of the free ligands [8]: > 500 mg/L^−1
9 | O=[N+]([O-])[O-].OCc1nc2ccccc2[nH]1.OCc1nc2ccccc2[nH]1.[Ag+] [Complex 5, [Ag(2-CH2OHbim)2]NO3] | 21 | 21 | 21 | 21 | 43 | 21 | growth-inhibiting concentration, fold lower than that of AgSD ([2]; E. coli, MIC relative to AgSD): 2.6 fold; growth-inhibiting concentration, fold lower than that of AgSD ([3]; P. aeruginosa, MIC relative to AgSD): 2.6 fold
10 | Cc1ncc([N+](=O)[O-])n1CCO.Cc1ncc([N+](=O)[O-])n1CCO.O=[N+]([O-])[O-].[Ag+] [Complex 6, [Ag(MTZ)2NO3]] |  |  |  |  |  |  | MBC (minimum bactericidal concentration) ([9]; E. coli ATCC 25992): 98 µM; MIC (minimum inhibitory concentration) ([9]; E. coli): 98 µM; MBC (minimum bactericidal concentration) ([10]; P. aeruginosa ATCC 15442): 117 µM; MIC (minimum inhibitory concentration) ([10]; P. aeruginosa): 59 µM; MBC (minimum bactericidal concentration) ([11]; P. hauseri ATCC 13315): 117 µM; MIC (minimum inhibitory concentration) ([11]; P. hauseri): 98 µM
11 | N.N.[Cl][Pt][Cl] [cis-DDP, cisplatin] |  |  |  |  |  |  | IC50 [12]: 0.9 µM; IC50 [5]: 7.87 µM
12 | {[Ag(4-pmOpe)]NO3}n [Complex 1] | 145 | 96 | 72 | 48 | 120 | 72 | MIC [6]: 37.6 µM; MIC [7]: 37.6 µM; IC50 [5]: 13 µM
